Results published in PMC6724035, “Evaluation of Tumor-Targeting Properties of an Antagonistic Bombesin Analogue RM26 Conjugated with a Non-Residualizing Radioiodine Label Comparison with a Radiometal-Labelled Counterpart” (Pharmaceutics, 2019).
Where a SMILES comes first, the peptide text is derived from it. [ ]: non-standard residue; d: D form. Tyr(3-I) = N[C@@H](Cc1ccc(O)c(I)c1)C(=O)O; Sta = CC(C)C[C@H](N)[C@@H](O)CC(=O)O; AEEA = NCCOCCOCC(=O)O

How the values were obtained:
[1] = 0.5 h; 300 µg phosphoramidon co-injected; non-tumour bearing NMRI mice
Method: Two groups of 4 mice were used for this experiment. Biodistribution of [^125I]I-Tyr-PEG2-RM26 was evaluated in female NMRI mice (weight: 29.6 ± 1.7 g). Non-tumour bearing mice as a control group were injected with 40 pmol of [^125I]I-Tyr-PEG2-RM26 (30 kBq, 100 μL in PBS) into the tail vein. Another group of mice was injected with same activity by co-injection of PA (15 µL of 20 mg/mL stock solution, 300 µg). After 0.5 h, mice were euthanized by dislocation of their neck, and blood samples were collected. Salivary glands, thyroid, lung, liver, spleen, pancreas, stomach, small intestine, kidneys, […], muscle, and bone were collected and weighed. The organ radioactivity was measured in a gamma-counter and uptake values of organs were calculated as percentage injected dose per gram tissue (% ID/g).

DU-145 cells = test: In vitro binding specificity assay; type: cell-based, human; conditions: 1 nM, 1 h at 37 °C; 200-fold excess NOTA-PEG4-RM26 for blocking
Method: (§1) The in vitro binding specificity test of [^125I]I-Tyr-PEG2-RM26 was performed on PC-3 and DU-145 cell lines. […] The cells were incubated with 1 nM concentration of [^125I]I-Tyr-PEG2-RM26 solution for 1 h at 37 °C. To saturate GRPR, one set of dishes was treated with 200-fold molar excess of non-labelled peptide, NOTA-PEG4-RM26, 15 min before adding the radiolabelled compound. After washing with serum-free media, cells were detached by treatment with 1 mL trypsin-EDTA solution twice. Cell-associated radioactivity was measured in the gamma-counter and presented as percentage of cell-associated activity.

PC-3 cells [2] = test: In vitro binding specificity assay; type: cell-based, human; conditions: 1 nM, 1 h at 37 °C; 200-fold excess NOTA-PEG4-RM26 for blocking
Method: as §1

PC-3 cells [3] = test: Cell-associated radioactivity in presence of lysosomotropic bases or sodium azide/2-deoxyglucose; type: cell-based, human; conditions: 1 nM, 100 µM chloroquine, 20 mM ammonium chloride, 2-8 h at 37 °C
Method: Additionally, PC-3 cells were incubated with 1 nM of [^125I]I-Tyr-PEG2-RM26 in presence of 20 mM sodium azide/10 mM 2-deoxyglucose at 37 °C for 8 h. […] At predetermined time points (2, 4, and 8 h), media from a set of three dishes was removed, cells were detached by trypsin-EDTA solution, re-suspended, and radioactivity in cells was measured.

[4] = tested on: GRPR-expressing PC-3 tumour xenograft; conditions: 0.5 h after injection; co-injection of non-labelled NOTA-PEG4-RM26
Method: Animal studies were planned and performed in agreement with EU Directive 2010/63/EU for animal experiments and Swedish national legislation concerning protection of laboratory animals. Experiments were approved by the Ethics Committee for Animal Research in Uppsala (C4/16, 26 February 2016). Biodistribution studies were performed in female BALB/C nu/nu mice purchased from Scanbur A/S (Karlslunde, Denmark). GRPR-expressing xenografts were established by subcutaneous injection of 5 × 10^6 PC-3 cells/mouse in the right hind leg of mice 3 weeks before the experiment. The animals were randomized into groups of four mice for each data point.
Mice were euthanized followed by dislocation of their neck at 0.5 h after injection and blood samples were collected by heart puncture. At 3 and 24 h after injection, mice were euthanized by an intraperitoneal injection of anaesthetic solution (20 µL of solution per gram of body weight: Ketalar, 10 mg/mL; Rompun, 1 mg/mL) followed by heart puncture. […] The organ radioactivity was measured in a gamma-counter and uptake values of organs were calculated as percentage of injected dose per gram tissue (% ID/g). To test the in vivo binding specificity, a group of mice was co-injected with 7.5 nmol of non-labelled peptide (NOTA-PEG4-RM26), and biodistribution was measured at 0.5 h after injection.

[5] = Method: Lipophilicity was determined as the logarithm of partition coefficient, logP, of the radiolabelled compound between n-octanol and water. To determine the lipophilicity of both radioconjugates, 500 µL of n-octanol was added to a tube containing the same volume of Milli-Q water. 1 pmol (10 kBq) of radioconjugate was added. The mixture was vigorously vortexed for 1–2 min and then centrifuged. Aliquots of 100 μL were taken from each phase and their radioactivity was measured by an automated gamma-counter. The partition coefficient was calculated as the average log of a ratio of the radioactivity in organic and aqueous fractions. Each measurement was repeated in triplicate.
PC-3 cells [6] = test: Cellular processing assay (membrane-bound and internalized radioactivity); type: cell-based, human; conditions: 1 nM, 37 °C
Method: At predetermined time points (1, 2, 4, 8, 24 h), incubation media was aspirated, cells were washed with serum-free media, and membrane-bound and internalized radioactivity were collected using the method described earlier. The membrane-bound radiolabelled conjugate were removed from cells by treatment with 4 M urea solution in a 0.1 M glycine buffer, pH 2, for 5 min on ice. The cell debris containing the internalized conjugate was detached by treatment with 1 M NaOH. Radioactivity of samples was measured, and percentage of membrane-bound, internalized and total radioactivity was calculated. The experiments were performed in triplicate.

[7] = HPLC
Method: In vitro stability of [^125I]I-Tyr-PEG2-RM26 was evaluated in PBS and in presence of 100-fold molar excess of sodium iodide (1 mM). After purification, samples of freshly labelled conjugate (10 µL, 0.01 nmol) were mixed with 1 µL of NaI and incubated at room temperature for 1 h. Control samples were mixed with equal volume of PBS. The experiment was performed in duplicates. The stability of [^125I]I-Tyr-PEG2-RM26 was analyzed by HPLC.

For CC(C)C[C@H](NC(=O)C[C@H](O)[C@H](CC(C)C)NC(=O)[C@H](Cc1c[nH]cn1)NC(=O)CNC(=O)[C@@H](NC(=O)[C@H](C)NC(=O)[C@H](Cc1c[nH]c2ccccc12)NC(=O)[C@H](CCC(N)=O)NC(=O)[C@@H](Cc1ccccc1)NC(=O)COCCOCCNC(=O)[C@@H](N)Cc1ccc(O)c(I)c1)C(C)C)C(N)=O [[^125I]I-Tyr-PEG2-RM26] (H-[Tyr(3-I)][AEEA][dF]QWAVGH[Sta]L-NH2), the “Influence of PA co-injection on blood clearance rate or uptake in normal non-targeted organs and tissues” value [1] was “did not show any significant influence”, the “Uptake in GRPR-positive organs (pancreas, small intestines, stomach) after co-injection of PA” value [1] was “No significant increase” and the “Binding specificity to DU-145 cells” value (DU-145 cells) was “receptor mediated”. The “Binding specificity to PC-3 cells” value (PC-3 cells [2]) was “receptor mediated”, the “Cell-bound activity and retention in presence of chloroquine and ammonium chloride vs control” value (PC-3 cells [3]) was “considerably higher compared to control” and the “Uptake in pancreas, blocked vs non-blocked group” value [4] was “significantly (p < 0.05) reduced”. For the same compound, the logP [5] was 1 ± 0.1, the Cellular processing pattern (PC-3 cells [6]) was “quite fast internalization during the first hour” and the “In vitro stability in presence of excess 1 mM NaI” value ([7]; 100-fold molar excess NaI, 1 h at room temperature) was 92 ± 3%. For the same compound, the “In vitro stability in PBS” value ([7]; 1 h incubation at room temperature) was 95 ± 1%.
